Patent publication US20240285643A1, “TREATING INFLUENZA USING SUBSTITUTED POLYCYCLIC PYRIDONE DERIVATIVES AND PRODRUGS THEREOF IN A SUBJECT HAVING INFLUENZA AND A SEVERE INFLUENZA CONDITION” (Shionogi & Co., Ltd., priority 2019, published 2024)

How the values were obtained:
[1] = system: influenza type A virus A/Osaka/129/2009 and Streptococcus pneumoniae SR1326; type: in vivo, BALB/c mice; conditions: for mice survived: BXA 10 mg/kg sc single dose, OSP 10 mg/kg po bid 5 days, through 15 days
[2] = SD, rat, in vivo
[3] = system: influenza type A virus A/Osaka/129/2009 and Streptococcus pneumoniae SR1326; type: in vivo, BALB/c mice; conditions: for mice recovered from body weight loss and survived: BXA 10 mg/kg sc single dose, OSP 10 mg/kg po bid 5 days
[4] = clinical; conditions: human, in vivo
Experimental: Patients were administered up to three doses of baloxavir marboxil separated by 3 days (i.e., Days 1, 4, and 7). […] Likewise, total drug exposure simulated on Day 7 area under the plasma concentration-time curve for a dosing interval (AUCtau) was not expected to exceed area under the concentration-time curve from Time 0 to infinity (AUCinf) of the TQT, regardless of dose.

[5] = set-up: species or system rats; conditions: rat, po
From the text: FIGS. 1 and 2 show a result of measuring the plasma concentration of Compound (III) and Compound (II-6), respectively, after oral administration of prodrug Compound (II-6) to rats under non-fasting conditions.

Compound | BA (%) [2] [%] | mice survived [1] | mice recovered from body weight loss and survived [3] | also measured
baloxavir marboxil [II-6] | – | – | – | body weight change after virus infection ([1]; 2-day delayed treatment, compared with vehicle, OSP or monotherapy): less reduction of body weight
CC(=O)Oc1c2n(ccc1=O)N([C@@H]1c3ccccc3SCc3c1ccc(F)c3F)[C@@H]1COCCN1C2=O [II-4] | 20.0 | – | – | –
CCOC(=O)C1=C[C@@H](OC(CC)CC)[C@H](NC(C)=O)[C@@H](N)C1 [OSP, Oseltamivir phosphate, reference compound] | – | all mice died | all mice died | survival time compared with vehicle treatment ([1]; 2-day delayed treatment, log rank test): significantly prolonged; efficacy on survival ([3]; mouse, in vivo): not effective
O=C1c2c(O)c(=O)ccn2N([C@@H]2c3ccccc3SCc3c2ccc(F)c3F)[C@@H]2COCCN12 [III, baloxavir] | 4.2 | 75% | 40% | Cmax [4]: 126 ng/mL; half-life [4]: ~70 h
COC(=O)OCOc1c2n(ccc1=O)N([C@@H]1c3ccccc3SCc3c1ccc(F)c3F)[C@@H]1COCCN1C2=O [II-6, baloxavir marboxil] | 14.9 | – | – | conversion of prodrug to Compound (III) in vivo [5]: metabolized promptly to Compound (III)
